# According to article PMC7714403 (JCI Insight, 2020):
# Experiments:
# Assay in all cases: KiNativ, OCI cells live cell
# Format in all cases: cell-based
# MST1 = MST1 (Homo sapiens, UniProt Q13043); conditions: labeling site Lys1, peptide ETGQIVAIKQVPVESDLQEIIK
# MAP3K2 = MAP3K2 (Homo sapiens, UniProt Q9Y2U5); conditions: 2 h, labeling site Lys1, peptide […]
# PIP4K2C = biological target: T1, PIP4K2C (Homo sapiens, UniProt Q8TBX8); conditions: 2 h, labeling site ATP
# T1 sequence (Q8TBX8 1-421): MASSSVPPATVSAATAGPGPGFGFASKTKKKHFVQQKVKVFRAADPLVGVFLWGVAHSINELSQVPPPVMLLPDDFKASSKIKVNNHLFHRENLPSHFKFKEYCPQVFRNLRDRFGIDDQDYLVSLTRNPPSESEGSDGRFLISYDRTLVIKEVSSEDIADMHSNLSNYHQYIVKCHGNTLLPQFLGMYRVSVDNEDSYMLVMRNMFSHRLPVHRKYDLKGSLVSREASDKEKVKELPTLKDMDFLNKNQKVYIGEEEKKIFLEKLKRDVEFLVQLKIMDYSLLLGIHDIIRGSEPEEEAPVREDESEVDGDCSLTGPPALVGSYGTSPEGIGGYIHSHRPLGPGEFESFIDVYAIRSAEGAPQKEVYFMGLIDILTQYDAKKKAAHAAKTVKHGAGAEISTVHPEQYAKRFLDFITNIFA
# CDK6 = CDK6 (Homo sapiens, UniProt Q00534); conditions: 2 h, labeling site Lys2, peptide […]
# ULK1 = biological target: T2, ULK1 (Homo sapiens, UniProt O75385)
# T2 sequence (O75385 1-1050): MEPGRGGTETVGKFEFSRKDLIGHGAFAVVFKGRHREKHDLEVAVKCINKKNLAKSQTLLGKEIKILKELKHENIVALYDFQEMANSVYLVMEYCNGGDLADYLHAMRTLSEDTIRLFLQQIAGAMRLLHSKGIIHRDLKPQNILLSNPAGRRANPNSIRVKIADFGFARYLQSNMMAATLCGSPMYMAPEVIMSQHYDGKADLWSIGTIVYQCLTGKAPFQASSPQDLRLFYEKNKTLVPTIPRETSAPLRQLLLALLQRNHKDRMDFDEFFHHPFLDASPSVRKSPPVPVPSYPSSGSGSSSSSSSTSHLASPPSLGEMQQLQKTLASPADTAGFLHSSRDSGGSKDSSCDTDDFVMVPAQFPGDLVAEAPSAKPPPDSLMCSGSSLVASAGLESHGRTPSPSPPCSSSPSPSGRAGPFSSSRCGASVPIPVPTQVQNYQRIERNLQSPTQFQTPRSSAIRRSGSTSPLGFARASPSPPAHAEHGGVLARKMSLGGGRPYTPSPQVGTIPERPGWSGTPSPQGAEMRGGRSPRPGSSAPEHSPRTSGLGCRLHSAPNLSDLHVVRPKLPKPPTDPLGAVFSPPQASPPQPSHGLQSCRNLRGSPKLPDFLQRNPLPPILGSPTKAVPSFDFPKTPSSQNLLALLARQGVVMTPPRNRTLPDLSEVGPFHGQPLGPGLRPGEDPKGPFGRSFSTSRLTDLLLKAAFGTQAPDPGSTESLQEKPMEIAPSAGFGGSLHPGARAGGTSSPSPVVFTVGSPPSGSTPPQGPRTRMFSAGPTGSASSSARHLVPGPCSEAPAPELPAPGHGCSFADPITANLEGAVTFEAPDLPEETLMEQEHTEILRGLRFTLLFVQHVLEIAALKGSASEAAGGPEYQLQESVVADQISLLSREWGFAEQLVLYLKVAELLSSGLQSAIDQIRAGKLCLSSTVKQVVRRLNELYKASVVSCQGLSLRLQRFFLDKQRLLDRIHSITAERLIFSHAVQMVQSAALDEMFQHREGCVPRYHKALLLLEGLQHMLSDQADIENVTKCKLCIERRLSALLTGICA
# PKN1 = PKN1 (Homo sapiens, UniProt Q16512); conditions: 2 h
# MLKL = biological target: T3, MLKL (Homo sapiens, UniProt Q8NB16); conditions: 2 h, labeling site Lys1, peptide […]
# T3 sequence (Q8NB16 1-471): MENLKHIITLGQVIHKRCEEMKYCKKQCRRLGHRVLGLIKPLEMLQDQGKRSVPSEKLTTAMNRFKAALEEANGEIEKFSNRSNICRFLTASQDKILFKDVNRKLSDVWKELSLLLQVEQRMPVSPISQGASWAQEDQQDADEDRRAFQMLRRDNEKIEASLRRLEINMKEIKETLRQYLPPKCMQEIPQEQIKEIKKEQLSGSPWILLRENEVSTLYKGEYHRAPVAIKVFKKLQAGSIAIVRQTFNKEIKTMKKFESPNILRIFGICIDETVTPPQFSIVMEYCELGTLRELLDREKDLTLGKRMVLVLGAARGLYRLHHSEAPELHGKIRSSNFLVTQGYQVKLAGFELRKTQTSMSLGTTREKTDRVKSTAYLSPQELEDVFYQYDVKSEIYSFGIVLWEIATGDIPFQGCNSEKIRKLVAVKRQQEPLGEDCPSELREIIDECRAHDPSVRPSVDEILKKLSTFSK
# FER = FER (Homo sapiens, UniProt P16591); conditions: 2 h, labeling site Activation Loop, peptide […]
# ZAK = ZAK (Homo sapiens, UniProt Q9NYL2); conditions: 2 h, labeling site Lys1, peptide […]
# HPK1 = HPK1 (Homo sapiens, UniProt Q92918); conditions: 2 h
# eEF2K = eEF2K (Homo sapiens, UniProt O00418); conditions: 2 h, labeling site ATP, peptide […]
# PIK3CD = PIK3CD (Homo sapiens, UniProt O00329); conditions: 2 h, labeling site ATP, peptide […]
# PITSLRE = PITSLRE (Homo sapiens, UniProt P21127); conditions: 2 h, labeling site Lys2, peptide […]
# IKKa = IKKa (Homo sapiens, UniProt O15111); conditions: 2 h, labeling site Lys2, peptide […]
# Sequence of IKKa (O15111 whole entry): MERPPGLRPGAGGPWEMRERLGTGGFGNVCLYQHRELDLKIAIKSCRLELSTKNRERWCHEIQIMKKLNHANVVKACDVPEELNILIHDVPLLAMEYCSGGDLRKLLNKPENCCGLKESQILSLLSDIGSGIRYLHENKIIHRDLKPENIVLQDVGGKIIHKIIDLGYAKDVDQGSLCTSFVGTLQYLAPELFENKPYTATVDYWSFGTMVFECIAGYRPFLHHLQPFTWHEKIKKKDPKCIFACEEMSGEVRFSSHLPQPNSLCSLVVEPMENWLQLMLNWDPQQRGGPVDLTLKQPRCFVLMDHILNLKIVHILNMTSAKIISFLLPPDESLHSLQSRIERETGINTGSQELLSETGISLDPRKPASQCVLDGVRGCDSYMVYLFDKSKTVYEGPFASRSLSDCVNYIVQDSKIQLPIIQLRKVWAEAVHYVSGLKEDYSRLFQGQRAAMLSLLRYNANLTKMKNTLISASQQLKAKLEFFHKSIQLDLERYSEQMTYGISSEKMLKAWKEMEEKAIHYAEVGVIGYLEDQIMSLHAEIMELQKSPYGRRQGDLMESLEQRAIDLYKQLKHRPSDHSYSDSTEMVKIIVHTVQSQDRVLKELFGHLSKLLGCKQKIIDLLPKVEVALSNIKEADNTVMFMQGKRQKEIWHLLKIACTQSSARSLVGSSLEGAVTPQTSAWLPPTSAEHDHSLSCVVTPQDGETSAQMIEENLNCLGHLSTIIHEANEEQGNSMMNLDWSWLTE
# Sequence of PKN1 (Q16512 whole entry): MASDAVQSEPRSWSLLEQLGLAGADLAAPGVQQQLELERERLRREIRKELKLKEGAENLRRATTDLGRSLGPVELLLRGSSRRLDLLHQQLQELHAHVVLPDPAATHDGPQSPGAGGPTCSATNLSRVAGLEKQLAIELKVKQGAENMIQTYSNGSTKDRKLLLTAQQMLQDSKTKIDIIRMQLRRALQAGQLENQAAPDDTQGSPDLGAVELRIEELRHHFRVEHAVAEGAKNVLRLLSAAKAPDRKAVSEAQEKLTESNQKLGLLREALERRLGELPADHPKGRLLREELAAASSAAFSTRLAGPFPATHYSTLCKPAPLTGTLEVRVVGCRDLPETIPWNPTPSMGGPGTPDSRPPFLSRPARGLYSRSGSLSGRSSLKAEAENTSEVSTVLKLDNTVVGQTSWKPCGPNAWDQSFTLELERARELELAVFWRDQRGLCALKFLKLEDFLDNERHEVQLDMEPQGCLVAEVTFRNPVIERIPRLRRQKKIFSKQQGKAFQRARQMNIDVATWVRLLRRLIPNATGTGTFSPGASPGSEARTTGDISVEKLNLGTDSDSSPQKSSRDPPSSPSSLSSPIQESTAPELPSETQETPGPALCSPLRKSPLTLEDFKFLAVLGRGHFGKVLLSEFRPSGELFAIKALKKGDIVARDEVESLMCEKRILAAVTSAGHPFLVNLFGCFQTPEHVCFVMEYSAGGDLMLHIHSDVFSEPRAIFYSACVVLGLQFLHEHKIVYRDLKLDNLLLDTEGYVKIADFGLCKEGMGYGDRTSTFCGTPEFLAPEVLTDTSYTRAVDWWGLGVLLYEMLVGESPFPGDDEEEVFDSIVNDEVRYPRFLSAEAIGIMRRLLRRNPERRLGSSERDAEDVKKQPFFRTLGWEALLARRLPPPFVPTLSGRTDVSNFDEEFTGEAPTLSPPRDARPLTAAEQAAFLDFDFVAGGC
# Sequence of HPK1 (Q92918 whole entry): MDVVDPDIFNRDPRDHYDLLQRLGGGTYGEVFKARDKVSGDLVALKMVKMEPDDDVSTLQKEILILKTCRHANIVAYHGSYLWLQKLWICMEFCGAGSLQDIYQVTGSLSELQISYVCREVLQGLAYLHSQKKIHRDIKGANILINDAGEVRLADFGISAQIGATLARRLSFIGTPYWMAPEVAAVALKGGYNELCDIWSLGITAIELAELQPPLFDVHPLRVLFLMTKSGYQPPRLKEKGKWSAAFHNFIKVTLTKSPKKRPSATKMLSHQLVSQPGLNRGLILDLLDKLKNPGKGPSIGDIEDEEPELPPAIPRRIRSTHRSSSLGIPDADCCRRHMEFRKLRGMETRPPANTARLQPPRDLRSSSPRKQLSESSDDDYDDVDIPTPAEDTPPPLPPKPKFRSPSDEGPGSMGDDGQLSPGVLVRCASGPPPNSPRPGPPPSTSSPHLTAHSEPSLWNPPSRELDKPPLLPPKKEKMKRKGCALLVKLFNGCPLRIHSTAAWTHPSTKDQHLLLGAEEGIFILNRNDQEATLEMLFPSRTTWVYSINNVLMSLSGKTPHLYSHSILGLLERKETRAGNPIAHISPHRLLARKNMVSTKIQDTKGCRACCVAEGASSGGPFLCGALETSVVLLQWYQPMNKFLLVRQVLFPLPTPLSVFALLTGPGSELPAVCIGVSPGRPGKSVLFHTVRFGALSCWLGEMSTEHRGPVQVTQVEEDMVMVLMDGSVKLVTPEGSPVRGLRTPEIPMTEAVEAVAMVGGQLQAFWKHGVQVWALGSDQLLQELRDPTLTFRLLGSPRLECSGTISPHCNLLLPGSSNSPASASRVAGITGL
# Sequence of ZAK (Q9NYL2 whole entry): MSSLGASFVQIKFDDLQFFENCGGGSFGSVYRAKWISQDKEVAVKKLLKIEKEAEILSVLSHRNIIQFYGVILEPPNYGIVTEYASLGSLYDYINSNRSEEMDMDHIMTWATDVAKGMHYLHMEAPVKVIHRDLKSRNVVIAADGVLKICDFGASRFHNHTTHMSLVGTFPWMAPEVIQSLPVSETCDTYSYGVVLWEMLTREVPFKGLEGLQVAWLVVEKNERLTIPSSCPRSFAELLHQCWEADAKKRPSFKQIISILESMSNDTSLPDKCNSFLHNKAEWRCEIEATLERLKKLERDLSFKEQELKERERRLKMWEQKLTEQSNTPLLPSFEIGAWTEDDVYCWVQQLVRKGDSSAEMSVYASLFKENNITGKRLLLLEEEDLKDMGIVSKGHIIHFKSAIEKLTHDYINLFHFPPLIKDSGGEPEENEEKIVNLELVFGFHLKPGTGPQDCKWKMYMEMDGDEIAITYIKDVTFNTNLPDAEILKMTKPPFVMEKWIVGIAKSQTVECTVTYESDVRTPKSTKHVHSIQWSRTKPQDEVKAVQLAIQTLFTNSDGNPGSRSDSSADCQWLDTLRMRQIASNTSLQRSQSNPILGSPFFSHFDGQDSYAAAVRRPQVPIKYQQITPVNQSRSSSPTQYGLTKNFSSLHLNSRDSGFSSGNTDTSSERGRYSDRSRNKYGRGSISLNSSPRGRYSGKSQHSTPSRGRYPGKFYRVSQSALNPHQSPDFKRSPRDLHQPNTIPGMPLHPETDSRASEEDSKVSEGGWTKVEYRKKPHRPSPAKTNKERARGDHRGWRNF
# Sequence of CDK6 (Q00534 whole entry): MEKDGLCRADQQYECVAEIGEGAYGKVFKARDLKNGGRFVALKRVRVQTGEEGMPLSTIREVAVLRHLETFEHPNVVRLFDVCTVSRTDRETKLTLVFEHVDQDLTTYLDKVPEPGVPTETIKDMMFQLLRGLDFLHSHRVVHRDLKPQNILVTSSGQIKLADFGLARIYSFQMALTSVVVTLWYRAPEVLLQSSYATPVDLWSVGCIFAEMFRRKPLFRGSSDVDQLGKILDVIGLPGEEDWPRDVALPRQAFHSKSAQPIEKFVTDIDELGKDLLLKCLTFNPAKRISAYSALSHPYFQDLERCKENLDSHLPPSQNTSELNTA
# Sequence of PITSLRE (P21127 whole entry): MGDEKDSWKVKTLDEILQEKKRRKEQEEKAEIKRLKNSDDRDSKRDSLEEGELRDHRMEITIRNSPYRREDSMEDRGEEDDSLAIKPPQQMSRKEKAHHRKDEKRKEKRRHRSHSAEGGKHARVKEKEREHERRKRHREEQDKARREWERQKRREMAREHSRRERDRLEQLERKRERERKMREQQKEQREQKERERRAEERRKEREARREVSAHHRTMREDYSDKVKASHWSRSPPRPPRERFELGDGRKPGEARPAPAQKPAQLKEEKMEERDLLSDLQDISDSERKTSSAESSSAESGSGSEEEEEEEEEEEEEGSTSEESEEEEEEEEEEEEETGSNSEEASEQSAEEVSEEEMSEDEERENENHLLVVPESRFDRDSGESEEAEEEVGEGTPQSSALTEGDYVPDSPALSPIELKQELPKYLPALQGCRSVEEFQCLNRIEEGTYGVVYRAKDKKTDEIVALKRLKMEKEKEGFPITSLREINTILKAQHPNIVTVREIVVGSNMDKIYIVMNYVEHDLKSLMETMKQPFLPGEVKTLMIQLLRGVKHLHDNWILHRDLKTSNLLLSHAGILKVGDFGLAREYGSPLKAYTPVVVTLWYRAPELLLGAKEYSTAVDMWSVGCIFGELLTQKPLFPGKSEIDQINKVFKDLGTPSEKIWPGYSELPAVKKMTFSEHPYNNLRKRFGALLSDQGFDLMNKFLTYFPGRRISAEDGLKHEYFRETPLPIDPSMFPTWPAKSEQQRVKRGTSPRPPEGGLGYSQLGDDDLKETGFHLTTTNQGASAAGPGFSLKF
# Sequence of MAP3K2 (Q9Y2U5 whole entry): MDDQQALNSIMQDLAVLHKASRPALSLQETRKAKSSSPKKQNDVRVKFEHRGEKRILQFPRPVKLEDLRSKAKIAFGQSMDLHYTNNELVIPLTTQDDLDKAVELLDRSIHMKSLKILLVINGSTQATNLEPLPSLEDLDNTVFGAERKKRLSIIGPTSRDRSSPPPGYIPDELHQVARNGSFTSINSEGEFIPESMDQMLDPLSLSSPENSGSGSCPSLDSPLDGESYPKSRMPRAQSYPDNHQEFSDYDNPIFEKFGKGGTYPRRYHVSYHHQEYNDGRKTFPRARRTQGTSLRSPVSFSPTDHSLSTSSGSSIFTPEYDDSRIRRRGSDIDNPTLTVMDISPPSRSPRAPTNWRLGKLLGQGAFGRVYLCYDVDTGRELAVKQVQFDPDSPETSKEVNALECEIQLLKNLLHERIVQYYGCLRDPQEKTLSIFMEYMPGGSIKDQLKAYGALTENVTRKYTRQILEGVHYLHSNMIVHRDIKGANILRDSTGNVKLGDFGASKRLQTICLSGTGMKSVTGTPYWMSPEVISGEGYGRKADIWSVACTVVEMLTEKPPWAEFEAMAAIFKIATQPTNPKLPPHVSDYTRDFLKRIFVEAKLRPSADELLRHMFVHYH
smiles,measurement,setting,value
CN1CCN(Cc2ccc(Nc3ncc(Cl)c(Nc4ccccc4S(=O)(=O)N(C)C)n3)cc2)CC1 [TP-0903],Inhibition,MST1,33.6%
same,inhibition at 0.1 µM,MAP3K2,30.6%
same,inhibition at 0.1 µM,PIP4K2C; peptide TLVIKEVSSEDIADMHSNLSNYHQYIVK,-9.8%
same,inhibition at 0.1 µM,PIP4K2C; peptide VKELPTLKDMDFLNK,-19.6%
same,inhibition at 0.1 µM,CDK6,74.1%
same,Inhibition,"ULK1; labeling site Lys1, peptide HDLEVAVKCINKK",23.3%
same,Inhibition,"ULK1; labeling site Lys2, peptide DLKPQNILLSNPAGR",59.5%
same,inhibition at 0.1 µM,"PKN1; labeling site Lys1, peptide VLLSEFRPSGELFAIKALK",63.2%
same,inhibition at 0.1 µM,"PKN1; labeling site Lys2, peptide DLKLDNLLLDTEGYVK",33.7%
same,inhibition at 0.1 µM,MLKL,-29.6%
same,inhibition at 0.1 µM,FER,70.2%
same,inhibition at 0.1 µM,ZAK,5.3%
same,inhibition at 0.1 µM,"HPK1; labeling site Lys1, peptide DKVSGDLVALKMVK",81%
same,inhibition at 0.1 µM,"HPK1; labeling site Lys2, peptide DIKGANILINDAGEVR",78.7%
same,inhibition at 0.1 µM,eEF2K,12.4%
same,inhibition at 0.1 µM,PIK3CD,-5.6%
same,inhibition at 0.1 µM,PITSLRE,-18.9%
same,inhibition at 0.1 µM,IKKa,2.6%
